The text below walks through data of patent US20240308995A1, “O-GLYCOPROTEIN-2-ACETAMIDO-2-DEOXY-3-D-GLUCOPYRANOSIDASE INHIBITORS” (BIOGEN MA INC., priority 2018, published 2024).

The target of data set [1] is OGA (S400 O-GLCNAC), HEK-293T cells transfected with Tau-V5 (Homo sapiens (Human), UniProt O60502). Description: Cellular OGA-Tau MSD Assay. The data set is classed as cell-based. To be noted: HEK-293T cells, Tau-S400-GlcNAc MSD readout. The gist of the method: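 HEK-293T cells transfected with OGA and Tau-V5 plasmids were treated overnight at 37° C with a 10-point, 3-fold titration from 1 uM. Lysates went onto V5-antibody MSD plates to capture Tau, probed with a Tau O-GlcNAc antibody and read by electrochemiluminescence; IC50 from a 4-parameter fit.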
OGA (S400 O-GLCNAC), HEK-293T cells transfected with Tau-V5, sequence (O60502 whole entry): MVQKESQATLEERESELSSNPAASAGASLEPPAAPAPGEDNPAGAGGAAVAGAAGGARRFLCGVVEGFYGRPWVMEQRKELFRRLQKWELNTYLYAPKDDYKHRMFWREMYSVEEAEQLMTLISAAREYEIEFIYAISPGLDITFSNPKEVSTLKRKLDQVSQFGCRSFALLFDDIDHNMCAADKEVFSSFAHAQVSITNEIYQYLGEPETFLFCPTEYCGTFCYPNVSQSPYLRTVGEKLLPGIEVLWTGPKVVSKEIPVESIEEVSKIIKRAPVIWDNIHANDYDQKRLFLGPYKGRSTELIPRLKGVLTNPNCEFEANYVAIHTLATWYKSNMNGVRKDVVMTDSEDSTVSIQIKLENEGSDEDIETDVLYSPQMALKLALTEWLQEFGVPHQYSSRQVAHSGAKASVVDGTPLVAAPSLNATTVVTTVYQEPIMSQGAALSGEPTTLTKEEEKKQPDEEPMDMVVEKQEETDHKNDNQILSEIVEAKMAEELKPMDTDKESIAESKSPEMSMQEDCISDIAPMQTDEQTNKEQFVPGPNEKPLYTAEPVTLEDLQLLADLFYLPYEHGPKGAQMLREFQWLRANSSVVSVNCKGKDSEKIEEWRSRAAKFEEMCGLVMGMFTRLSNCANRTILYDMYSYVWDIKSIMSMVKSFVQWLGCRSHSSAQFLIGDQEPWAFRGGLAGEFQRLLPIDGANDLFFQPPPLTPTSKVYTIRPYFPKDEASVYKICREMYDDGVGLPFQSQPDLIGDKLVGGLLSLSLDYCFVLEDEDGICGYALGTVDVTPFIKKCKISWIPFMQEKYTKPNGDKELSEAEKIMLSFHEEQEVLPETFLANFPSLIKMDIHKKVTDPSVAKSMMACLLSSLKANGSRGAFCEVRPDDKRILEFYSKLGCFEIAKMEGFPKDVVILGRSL

A short description of data set [2]: Rat Liver Microsome Stability Assay. In kind it is in vitro ADME. The note with it: rat liver microsomes, 1 uM compound.
The test system of a further data set is P-gp (MDR1). The experiment in a line: MDR1-MDCK Efflux Ratio Assay. The data set is classed as in vitro ADME. To be noted: dog, MDCK-MDR1, pH 7.4, MDR1-MDCK cells, 2 hr, pH 7.4; read-out: MDR1-MDCK Efflux Ratio (B-A/A-B). The gist of the method: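 Bidirectional (apical↔basolateral) transport across confluent MDR1-MDCK monolayers in HBSS/10 mM HEPES pH 7.4, receiver buffer with 1% BSA; 2 hr at 37° C, 5% CO2. Donor sampled at 0 and 120 min, receiver at 120 min, quantified by LC-MS/MS in triplicate. Papp, efflux ratio and percent recovery calculated.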

Data set [3] has as its target Recombinant full length human OGA enzyme (Homo sapiens (Human), UniProt O60502). Description: OGA Enzyme Inhibition Biochemical Assay. To be noted: 1 nM OGA, 100 μM 4-MUGlcNAc, pH 6.4. In a few lines:
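Full-length recombinant human OGA with fluorogenic 4-MUGlcNAc in McIlvaine buffer pH 6.4, 0.01% BSA; 90 min at room temperature, glycine pH 10 quench, fluorescence Ex 355/Em 460 nm. 10-point, 4-fold dilution from 20 μM; 4-parameter variable-slope fit.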

Recombinant full length human OGA enzyme, sequence (O60502 whole entry): as above

On to `CC(=O)Nc1ncc(CN2C[C@H](Oc3ncc(OC(F)F)cn3)C[C@@H]2C)s1` [Example 1-80, N-(5-(((2S,4R)-4-((5-(difluoromethoxy)pyrimidin-2-yl)oxy)-2-methylpyrrolidin-1-yl)methyl)thiazol-2-yl)acetamide], for which the IC50 (usually the midpoint of a concentration-inhibition curve) is < 1 nM in data set [1] and 1.2 nM in data set [3]. In addition, the “RLM % Qh (%)” value in data set [2] worked out at 65%. The efflux ratio at 2 h in the data set with P-gp (MDR1) is 18.1.
On to `CC(=O)Nc1ncc(CN2C[C@H](Oc3ccnc(C)c3)C[C@@H]2C)s1` [Example 1-82, N-(5-(((2S,4R)-2-methyl-4-((2-methylpyridin-4-yl)oxy)pyrrolidin-1-yl)methyl)thiazol-2-yl)acetamide], for which the IC50 in data set [1] is 2 nM; in data set [3] it was < 1 nM. Moreover, in data set [2], the “RLM % Qh (%)” value was 38%. Moreover, the efflux ratio at 2 h in the data set with P-gp (MDR1) is 16.7.
In the same order, the values of `CC(=O)Nc1ncc(CN2C[C@H](Oc3ccc(F)nn3)C[C@@H]2C)s1` [Example 1-83, N-(5-(((2S,4R)-4-((6-fluoropyridazin-3-yl)oxy)-2-methylpyrrolidin-1-yl)methyl)thiazol-2-yl)acetamide] are 1 nM, < 1 nM, 16% and 38.6.
Take `CC(=O)Nc1nc(F)c(CN2C[C@H](Oc3ccc(F)nc3)C[C@@H]2C)s1` [Example 1-85, N-(4-fluoro-5-(((2S,4R)-4-((6-fluoropyridin-3-yl)oxy)-2-methylpyrrolidin-1-yl)methyl)thiazol-2-yl)acetamide]: the IC50 in data set [1] is 2 nM; in data set [3], < 1 nM. Moreover, the “RLM % Qh (%)” value in data set [2] came to 60%. Besides, in the data set with P-gp (MDR1), the efflux ratio at 2 h is 3.8.
In the same order, the values of `CC(=O)Nc1ncc(CN2C[C@H](Oc3ncc(F)cn3)C[C@@H]2C)s1` [Example 1-86, N-(5-(((2S,4R)-4-((5-fluoropyrimidin-2-yl)oxy)-2-methylpyrrolidin-1-yl)methyl)thiazol-2-yl)acetamide] are < 1 nM, < 1 nM, 26% and 11.2.
`CC(=O)Nc1ncc(CN2C[C@H](Oc3cc(C)c(F)cn3)C[C@@H]2C)s1` [Example 1-87, N-(5-(((2S,4R)-4-((5-fluoro-4-methylpyridin-2-yl)oxy)-2-methylpyrrolidin-1-yl)methyl)thiazol-2-yl)acetamide]: the IC50 in data set [1] and in data set [3] was < 1 nM throughout. Also, the “RLM % Qh (%)” value in data set [2] is 81%. Besides, the efflux ratio at 2 h in the data set on P-gp (MDR1) was found to be 1.8.
Take `COc1cncc(O[C@@H]2C[C@H](C)N(Cc3sc(NC(C)=O)nc3F)C2)n1` [Example 1-88, N-(4-fluoro-5-(((2S,4R)-4-((6-methoxypyrazin-2-yl)oxy)-2-methylpyrrolidin-1-yl)methyl)thiazol-2-yl)acetamide]: the IC50 in data set [1] is 1 nM; in data set [3], < 1 nM. In addition, in data set [2], the “RLM % Qh (%)” value amounted to 98%. Further, the efflux ratio at 2 h with P-gp (MDR1) turned out to be 4.7.
As to `COc1cnc(O[C@@H]2C[C@H](C)N(Cc3sc(NC(C)=O)nc3F)C2)nc1` [Example 1-89, N-(4-fluoro-5-(((2S,4R)-4-((5-methoxypyrimidin-2-yl)oxy)-2-methylpyrrolidin-1-yl)methyl)thiazol-2-yl)acetamide], the IC50 in data set [1] and in data set [3] was < 1 nM each time. Also, the “RLM % Qh (%)” value in data set [2] is on record as 66%. In the data set on P-gp (MDR1), the efflux ratio at 2 h stood at 19.7.
With `CC(=O)Nc1nc(F)c(CN2C[C@H](Oc3ccc(Cl)cn3)C[C@@H]2C)s1` [Example 1-90, N-(5-(((2S,4R)-4-((5-chloropyridin-2-yl)oxy)-2-methylpyrrolidin-1-yl)methyl)-4-fluorothiazol-2-yl)acetamide], the IC50 in data set [1] and in data set [3] was < 1 nM in each case. In addition, the “RLM % Qh (%)” value in data set [2] turned out to be 88%. For the same molecule, the efflux ratio at 2 h with P-gp (MDR1) amounted to 1.1.
Consider `COc1ccnc(O[C@@H]2C[C@H](C)N(Cc3sc(NC(C)=O)nc3F)C2)n1` [Example 1-91, N-(4-fluoro-5-(((2S,4R)-4-((4-methoxypyrimidin-2-yl)oxy)-2-methylpyrrolidin-1-yl)methyl)thiazol-2-yl)acetamide], for which the IC50 in data set [1] and in data set [3] was < 1 nM each time. Further, the “RLM % Qh (%)” value in data set [2] came to 81%. Also, in the data set on P-gp (MDR1), the efflux ratio at 2 h was found to be 9.9.
Consider `COc1nccc(O[C@@H]2C[C@H](C)N(Cc3sc(NC(C)=O)nc3F)C2)n1` [Example 1-92, N-(4-fluoro-5-(((2S,4R)-4-((2-methoxypyrimidin-4-yl)oxy)-2-methylpyrrolidin-1-yl)methyl)thiazol-2-yl)acetamide], for which the IC50 in data set [1] is 1 nM; in data set [3], < 1 nM. In addition, the “RLM % Qh (%)” value in data set [2] was 54%. The efflux ratio at 2 h with P-gp (MDR1) worked out at 10.
In the same order, the values of `CC(=O)Nc1nc(F)c(CN2C[C@H](Oc3ncccn3)C[C@@H]2C)s1` [Example 1-93, N-(4-fluoro-5-(((2S,4R)-2-methyl-4-(pyrimidin-2-yloxy)pyrrolidin-1-yl)methyl)thiazol-2-yl)acetamide] are 2 nM, < 1 nM, 42% and 14.3.
As for `CC(=O)Nc1nc(F)c(CN2C[C@H](Oc3ncccc3F)C[C@@H]2C)s1` [Example 1-94, N-(4-fluoro-5-(((2S,4R)-4-((3-fluoropyridin-2-yl)oxy)-2-methylpyrrolidin-1-yl)methyl)thiazol-2-yl)acetamide], the IC50 in data set [1] is 2 nM; in data set [3], < 1 nM. Also, the “RLM % Qh (%)” value in data set [2] turned out to be 91%. Further, in the data set with P-gp (MDR1), the efflux ratio at 2 h is 1.8.
As for `CC(=O)Nc1nc(F)c(CN2C[C@H](Oc3ncc(Cl)cn3)C[C@@H]2C)s1` [Example 1-95, N-(5-(((2S,4R)-4-((5-chloropyrimidin-2-yl)oxy)-2-methylpyrrolidin-1-yl)methyl)-4-fluorothiazol-2-yl)acetamide], the IC50 in data set [1] is 1 nM; in data set [3] it was < 1 nM. For the same molecule, in data set [2], the “RLM % Qh (%)” value was 72%. Besides, the efflux ratio at 2 h with P-gp (MDR1) worked out at 3.6.
The matching figures for `CC(=O)Nc1nc(F)c(CN2C[C@H](Oc3cc(F)ccn3)C[C@@H]2C)s1` [Example 1-96, N-(4-fluoro-5-(((2S,4R)-4-((4-fluoropyridin-2-yl)oxy)-2-methylpyrrolidin-1-yl)methyl)thiazol-2-yl)acetamide]: 1 nM, < 1 nM, 86% and 1.2.
In the same order, the values of `CC(=O)Nc1nc(F)c(CN2C[C@H](Oc3ccnc(F)c3)C[C@@H]2C)s1` [Example 1-97, N-(4-fluoro-5-(((2S,4R)-4-((2-fluoropyridin-4-yl)oxy)-2-methylpyrrolidin-1-yl)methyl)thiazol-2-yl)acetamide] are 3 nM, < 1 nM, 52% and 3.7.
In the same order, the values of `COc1ccc(O[C@@H]2C[C@H](C)N(Cc3sc(NC(C)=O)nc3F)C2)nc1` [Example 1-98, N-(4-fluoro-5-(((2S,4R)-4-((5-methoxypyridin-2-yl)oxy)-2-methylpyrrolidin-1-yl)methyl)thiazol-2-yl)acetamide] are 1 nM, < 1 nM, 93% and 2.1.
